According to paper PMC1890308, “Anti-calmodulins and Tricyclic Adjuvants in Pain Therapy Block the TRPV1 Channel” (PLoS ONE, 2007):
Several values for one entry are separate records, joined by “and”; a condition that tells them apart may be missing. Equal values may be shown once.

Experiments:
rat TRPV1 = biological target: T1, rat TRPV1 (Rattus norvegicus, UniProt O35433); assay: capsaicin-induced 45Ca2+-uptake in TRPV1-NIH3T3 cells; type: cell-based
T1 construct: expressed in transfected cells
Procedure: (§1) Assays were carried out in 2×10^−5 M extracellular Ca^2+ in 96 well plate formats at room temperature (22°C) for 10 min with robotic liquid handling. […] We hypothesized that calmodulin antagonists and some registered drugs may exert their blocking effect with another mechanisms on TRPV1 and not necessarily on their conventional target.
(§2) TRPV1-NIH3T3 mouse fibroblast line, ectopically expressing the rat TRPV1 was established previously.
(§3) Vanilloid agonist inducible calcium transport was assayed in adherent cell lines ectopically expressing the C-terminally ε-tagged rat TRPV1 (3×10^4 cells/well) and primary cultures prepared from embryonic DRG, seeded in poly-D lysine/collagen coated 96 well plates. […] The previously established cell lines and standardized DRG cultures were extensively characterized for functional cell-based TRPV1 studies [1]–[4]. Immediately before the transport assay, cells were adapted to room temperature (20°C) for 5 min in HCM. ^45Ca^2+-uptake was performed for 10 min at 20°C in HCM using 0.1 µCi ^45Ca^2+ as radioactive tracer in a 100 µl final volume. To stop ^45Ca^2+-uptake, cells were rapidly changed back into 0.2 ml HCM, washed 4 additional times with 0.2 ml HCM, and then lysed in 80 µl/well RIPA buffer (50 mM Tris-HCl, pH 7.5, 150 mM NaCl, 1% Triton X-100, 0.5% deoxycholate, 0.1% SDS, 5 mM EDTA) for 30 min [1]–[4]. Aliquots of the solubilized cell extracts were mixed with 120 µl Microscint-40 and counted in a 96 well plate liquid scintillation counter (TopCount-NXT, Packard).

NMDA receptors = assay: NMDA-evoked responses of spinal dorsal horn neurons, microiontophoresis; type: in vivo; conditions: anesthetized rat, iontophoresis, mean±SD, n = 16
Procedure: (§4) In another set of experiments, effects of calmidazolium were investigated on the responses of dorsal horn neurons evoked by NMDA and kainic acid agonists of different glutamate receptors, well characterized transducers of pain signals, more centrally. Neuronal firing responses to iontophoresed NMDA or kainic acid were typically fast in onset and short in duration (Fig. 8). Ejection currents for these excitatory agents were delivered alternately in every 2 min and were selected to produce a maximal peak height of 50–70 spikes/s which corresponded to 300–400 action potentials per stimulation epoch. Iontophoretic application of calmidazolium produced significant reduction in responses to both NMDA and kainic acid. Maximal inhibition of NMDA- or kainic acid -evoked responses were reached 15–20 min after calmidazolium application and remained so during the rest of the 2 hour long experiment. […]
(§5) Extracellular single-neuron recordings were made in chloral hydrate-anesthetized ([…] initial dose, i.p., with supplemental doses as required) male Wistar rats weighing between 350–450 g. […] Rectal temperature as well as the temperature of the mineral oil were monitored with temperature probes and kept at 37°C by a warm water-heated blanket beneath the rat and an infrared heat lamp from above. […]

kainic acid receptors = assay: kainic acid-evoked responses of spinal dorsal horn neurons, microiontophoresis; type: in vivo; conditions: anesthetized rat, iontophoresis, mean±SD, n = 16
Procedure: as §4, §5

[1] = tested on: intermediate Ca2+-activated K+ channels (IKCa); conditions: human erythrocytes; cited from earlier work
formalin-induced pain = tested on: formalin-induced pain; design: method as in PMID 8883861; conditions: rat, intrathecal; cited from earlier work
heat-induced tail-flick = tested on: heat-induced tail-flick; design: method as in PMID 8883861; conditions: cited from earlier work
TRPV1 = TRPV1 (Rattus norvegicus, UniProt O35433); assay: capsaicin-induced Ca2+-uptake in human TRPV1-HaCaT keratinocyte line; type: cell-based; design: expressed in transfected cells; conditions: data not shown
Procedure: as §1, §2
as §3, with “To stop ^45Ca^2+-uptake, cells were rapidly changed back into 0.2 ml HCM, washed 4 additional times with 0.2 ml HCM, and then lysed in 80 µl/well RIPA buffer (50 mM Tris-HCl, pH 7.5, 150 mM NaCl, 1% Triton X-100, 0.5% deoxycholate, 0.1% SDS, 5 mM EDTA) for 30 min [1]–[4].” left out

[2] = increasing concentrations of capsaicin

T1 sequence (O35433 whole entry): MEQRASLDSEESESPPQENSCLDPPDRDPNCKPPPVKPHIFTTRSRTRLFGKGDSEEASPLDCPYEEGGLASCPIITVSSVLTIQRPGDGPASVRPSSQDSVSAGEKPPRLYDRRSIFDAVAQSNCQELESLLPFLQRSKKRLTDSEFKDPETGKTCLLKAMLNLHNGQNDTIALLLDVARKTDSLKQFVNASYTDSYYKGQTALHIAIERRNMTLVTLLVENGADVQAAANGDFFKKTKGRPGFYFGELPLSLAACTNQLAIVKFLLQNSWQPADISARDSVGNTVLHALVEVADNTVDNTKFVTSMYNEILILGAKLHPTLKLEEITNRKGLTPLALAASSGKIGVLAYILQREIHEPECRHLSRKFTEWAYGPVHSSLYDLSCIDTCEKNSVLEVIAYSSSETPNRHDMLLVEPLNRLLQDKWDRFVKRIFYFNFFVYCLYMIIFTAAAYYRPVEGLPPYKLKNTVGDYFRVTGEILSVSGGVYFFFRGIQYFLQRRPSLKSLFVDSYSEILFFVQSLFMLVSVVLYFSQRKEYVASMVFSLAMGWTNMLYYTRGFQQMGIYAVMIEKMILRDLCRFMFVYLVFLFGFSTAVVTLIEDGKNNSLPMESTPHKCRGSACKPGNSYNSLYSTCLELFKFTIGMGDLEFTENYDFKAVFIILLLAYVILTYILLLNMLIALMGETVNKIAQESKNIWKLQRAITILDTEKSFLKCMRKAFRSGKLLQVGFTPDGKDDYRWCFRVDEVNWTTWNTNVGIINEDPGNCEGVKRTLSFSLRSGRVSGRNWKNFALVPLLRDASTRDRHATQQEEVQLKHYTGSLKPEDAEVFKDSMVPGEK
Chain of TRPV1 (O35433 whole entry): as above

**Q.** Which “antagonist activity on capsaicin-induced Ca2+-uptake (in words)” value (rat TRPV1; 2 µM capsaicin) does the source give for `Clc1ccc(C(c2ccc(Cl)cc2)n2cc[n+](CC(OCc3ccc(Cl)cc3Cl)c3ccc(Cl)cc3Cl)c2)cc1` (stereo not shown) [calmidazolium] here?
**A.** full antagonists

**Q.** What about the IC50 (rat TRPV1; 2 µM capsaicin, 10 min, 2×10^−5 M extracellular Ca2+, room temperature, read-out: IC50, inhibition of capsaicin-induced 45Ca2+-uptake) of the same compound?
**A.** 7 µM and ~2 µM

**Q.** And the “concentration above which Ca2+-transport was almost completely abolished” value (rat TRPV1; [2])?
**A.** > 2.5 µM

**Q.** What about the “kinetics of Ca2+-transport inhibition” value (rat TRPV1; [2]) of the same compound?
**A.** decreased Vmax

**Q.** What about the “responses to NMDA, % of pre-calmidazolium baseline control” value (NMDA receptors) of the same compound?
**A.** 13±12%

**Q.** And the “responses to kainic acid, % of pre-calmidazolium baseline control” value (kainic acid receptors)?
**A.** 47±20%

**Q.** What about the “activity on IKCa channels (in words)” value [1] of the same compound?
**A.** inactive

**Q.** What about the “analgesia in both phases of formalin tests” value (formalin-induced pain) of the same compound?
**A.** analgesic

**Q.** What about the “effect on heat-induced tail-flick latency” value (heat-induced tail-flick) of the same compound?
**A.** inhibit

**Q.** What about the “efficacy on TRPV1 (in words)” value (TRPV1) of the same compound?
**A.** µM scale
